“And” between values parts separate entries of the source, which are not always exact repeats. Equal entries are not always repeated. Structures can show the parent of a compound that is named as a salt. Where two headings read alike, the source gives them in different places.
Experiments:
[1] = test system: 786-O (renal adenocarcinoma); settings: 10 μM, 72 hours
Method: (§1) These cells were seeded at an amount of 2×10^6 cells, and then added with the culture medium for cultivating the cells to a volume of 10 mL, followed by cultivation for 2 to 3 days. After counting the cell number, these cells were respectively plated in a 96-well plate, in which each well has a fixed cell number of 3000 and a volume of 100 μL.
(§2) After removing the culture medium in the 96-well plate, each well was added with 100 μL of 10 μM commercial drug and then placed for 72 hours. Thereafter, each well was further added with 100 μL of a diluted WST-1 solution (the dilution ratio for the culture medium: WST-1 stock solution (wt/wt) is 9:1).

[2] = test system: PC-3 (prostate adenocarcinoma); settings: 10 μM, 72 hours
Method: as §1, §2
(§3) Each cancer cell inhibitory experiment was repeated for 4 times, followed by calculation of the mean values thereof, which were shown in the following tables.

[3] = test system: LNCap; settings: 10 μM, 72 hours, single experiments not given
[4] = test system: TOV-21G; settings: 10 μM, 72 hours
Method: as §1, §2

[5] = test system: AGS (gastric adenocarcinoma); settings: 10 μM, 72 hours
Method: as §1, §2, §3

[6] = test system: MKN-45 (gastric adenocarcinoma); settings: 10 μM, 72 hours
Method: as §1, §2, §3

[7] = test system: HCT116-wt (colorectal carcinoma); settings: 10 μM, 72 hours
Method: as §1, §2, §3

[8] = test system: LoVo (colorectal adenocarcinoma); settings: 10 μM, 72 hours
Method: as §1, §2, §3

[9] = test system: AsPC-1; settings: 10 μM, 72 hours
Method: as §1, §2, §3

[10] = test system: SAS (tongue squamouscell carcinoma); settings: 10 μM, 72 hours
Method: as §1, §2, §3

[11] = test system: U2OS; settings: 10 μM, 72 hours
Method: as §1, §2

[12] = test system: A375 (amelanotic melanoma); settings: 10 μM, 72 hours
Method: as §1, §2

[13] = test system: BCC (basal cell carcinoma); settings: 10 μM, 72 hours
Method: as §1, §2

[14] = test system: Bladder cancer; settings: summary over cell lines, 10 μM, 72 hours
Method: as §1, §2

[15] = test system: Cervical cancer; settings: summary over cell lines, 10 μM, 72 hours
Method: as §1, §2

[16] = test system: Ovarian cancer; settings: summary over cell lines, 10 μM, 72 hours
Method: as §1, §2

[17] = test system: liver cancer cells (HepG2); settings: for Increased tumor volume, Mean / Volume, Mean / Increased tumor volume / L (longest diameter of the tumor) / Volume / W (shortest diameter of the tumor) / Weight: intraperitoneal daily; for Increased tumor volume, Mean / Volume, Mean: mean of 3 mice; for Increased tumor volume / L (longest diameter of the tumor) / Volume / W (shortest diameter of the tumor) / Weight: mice A, B, C
Method: This experiment was performed with female BALB/cAnN.Cg-Foxn1nu/CrlNarl mice with a weight of around 21±1 gas samples. After subcutaneous injection of liver cancer cells (HepG2), the mice were randomly divided into three groups based on the test drug, i.e., normal control group, low dosage group (100 mg/kg/day) and high dosage group (200 mg/kg/day). After the tumor was grown to be over 100 mm^3, the mice were treated with the drug via intraperitoneal injection daily. The tumor size was measured two times per week. The formula for determining the tumor size was as follows: (L×W^2)/2, in which L represents the longest diameter of the tumor and W represents the shortest diameter of the tumor.

[18] = High dosage (200 mg/kg/day), Fifth measurement
[19] = High dosage (200 mg/kg/day), First measurement
[20] = High dosage (200 mg/kg/day), First measurement, hydrochloride
[21] = High dosage (200 mg/kg/day), Fourth measurement
[22] = High dosage (200 mg/kg/day), Second measurement
[23] = High dosage (200 mg/kg/day), Second measurement, hydrochloride
[24] = High dosage (200 mg/kg/day), Third measurement
[25] = Low dosage (100 mg/kg/day), Fifth measurement
[26] = Low dosage (100 mg/kg/day), Fifth measurement, hydrochloride
[27] = Low dosage (100 mg/kg/day), First measurement
[28] = Low dosage (100 mg/kg/day), First measurement, hydrochloride
[29] = Low dosage (100 mg/kg/day), Fourth measurement
[30] = Low dosage (100 mg/kg/day), Fourth measurement, hydrochloride
[31] = Low dosage (100 mg/kg/day), Second measurement
[32] = Low dosage (100 mg/kg/day), Second measurement, hydrochloride
[33] = Low dosage (100 mg/kg/day), Third measurement
[34] = Low dosage (100 mg/kg/day), Third measurement, hydrochloride

## CNCC[C@H](Oc1cccc2ccccc12)c1cccs1 [duloxetine HCl, Duloxetine hydrochloride]
[1]; 786-O, mean of 4 experiments
  Mean survival rate (%): 67.3%
[1]; 786-O, single experiment
  survival rate 0524-10 min: 60.4%
  survival rate 0526-10 min: 89.7%
  survival rate 0529-10 min: 49.0%
  survival rate 0531-10 min: 70.1%
[1]; Renal cancer (786-O), summary table
  Survival rate (%): 67.3%
[2]; mean of 4 experiments
  Mean survival rate (%): 45.6%
[2]; single experiment
  survival rate PC-3-0524-10 min: 45.0%
  survival rate PC-3-0526-10 min: 70.9%
  survival rate PC-3-0529-10 min: 41.4%
  survival rate PC-3-0531-10 min: 25.1%
[3]
  Mean (survival rate): 72.8%
[4]; mean of 4 experiments
  Mean (survival rate): 34.9%
[4]; single experiment
  survival rate 7-3-30 min: 30.9%
  survival rate 7-4-30 min: 41.9%
  survival rate 7-7-30 min: 34.7%
  survival rate -4-30 min: 31.9%
[5]; mean of 4 experiments
  Mean survival rate (%): 23.5%
[5]; single experiment
  survival rate 0510-10 min: 25.0%
  survival rate 0512-10 min: 15.9%
  survival rate 0515-10 min: 37.3%
  survival rate 0517-10 min: 15.8%
[6]; mean of 4 experiments
  Mean (survival rate): 59.7%
[6]; single experiment
  survival rate 0510-10 min: 59.5%
  survival rate 0512-10 min: 75.3%
  survival rate 0515-10 min: 46.0%
  survival rate 0517-10 min: 57.9%
[7]; mean of 4 experiments
  Mean survival rate (%): 77.1%
[7]; single experiment
  survival rate 0602-30 min: 52.1%
  survival rate 0605-10 min: 108.8%
  survival rate 0607-10 min: 127.4%
  survival rate 0609-10 min: 20.3%
[8]; mean of 4 experiments
  Mean survival rate (%): 47.3%
[8]; single experiment
  survival rate 0616-10 min: 44.8%
  survival rate 0619-10 min: 63.4%
  survival rate 0621-10 min: 49.9%
  survival rate 0623-10 min: 31.0%
[9]; mean of 4 experiments
  Mean survival rate (%): 60.3%
[9]; single experiment
  survival rate 1-4-30 min: 61.7%
  survival rate 1-7-3-30 min: 75.7%
  survival rate 1-7-4-30 min: 78.0%
  survival rate 1-7-7-30 min: 26.0%
[10]; Lingual cancer (SAS), summary table
  Survival rate (%): 82.44%
[10]; SAS, mean of 4 experiments
  Mean survival rate (%): 82.4%
[10]; SAS, single experiment
  survival rate 6-26-10 min: 45.7%
  survival rate 6-28-10 min: 88.9%
  survival rate 6-30-10 min: 96.2%
  survival rate 7-3-10 min: 98.9%
[11]; Osteosarcoma (U2OS), summary table
  Survival rate (%): 35.09%
[11]; U2OS, mean of 4 experiments
  Mean survival rate (%): 35.1%
[11]; U2OS, single experiment
  survival rate 6-26-10 min: 26.6%
  survival rate 6-28-10 min: 21.5%
  survival rate 6-30-10 min: 56.6%
  survival rate 7-3-10 min: 35.6%
[12]; mean of 4 experiments
  Mean survival rate (%): 31.5%
[12]; single experiment
  survival rate 0602-30 min: 25.7%
  survival rate 0605-10 min: 16.2%
  survival rate 0607-10 min: 17.1%
  survival rate 0609-10 min: 67.0%
[13]; mean of 3 experiments
  Mean (survival rate): 48.1%
[13]; single experiment
  survival rate 0602-30 min: 43.9%
  survival rate 0605-10 min: 31.3%
  survival rate 0607-10 min: 69.0%
[14]
  Survival rate (%): 67.2%
[15]
  Survival rate (%): 36.76%
[16]
  Survival rate (%): 51.5%
[17]; [18]
  Increased tumor volume, Mean: 0 mm^3
  Volume, Mean: 0 mm^3
  Increased tumor volume: 0 mm^3
  L (longest diameter of the tumor): 0 mm
  Volume: 0 mm^3
  W (shortest diameter of the tumor): 0 mm
  Weight: 20 g
[17]; High dosage (200 mg/kg/day), Fifth measurement, hydrochloride
  Weight: 21 g
[17]; [19]
  Increased tumor volume, Mean: 78.5 mm^3
  Volume, Mean: 78.5 mm^3
  Weight: 20 g
[17]; [20]
  L (longest diameter of the tumor): 6 mm and 8 mm and 7 mm
  W (shortest diameter of the tumor): 4 mm and 5 mm
  Weight: 19 g and 18.5 g
[17]; [21]
  Increased tumor volume, Mean: −13.3333 mm^3
  Volume, Mean: 0 mm^3
  L (longest diameter of the tumor): 0 mm
  Volume: 0 mm^3
  W (shortest diameter of the tumor): 0 mm
  Weight: 20 g
[17]; High dosage (200 mg/kg/day), Fourth measurement, hydrochloride
  Weight: 21 g
[17]; [22]
  Increased tumor volume, Mean: −25.8333 mm^3
  Volume, Mean: 52.67 mm^3
  Weight: 20 g
[17]; [23]
  L (longest diameter of the tumor): 6 mm and 5 mm and 7 mm
  W (shortest diameter of the tumor): 4 mm and 3 mm and 5 mm
  Weight: 23 g
[17]; [24]
  Increased tumor volume, Mean: −39.3333 mm^3
  Volume, Mean: 13.33 mm^3
[17]; High dosage (200 mg/kg/day), Third measurement, hydrochloride
  Weight: 19 g and 18.5 g
[17]; [25]
  Increased tumor volume, Mean: −8.333 mm^3
  Volume, Mean: 63.33 mm^3
  Weight: 20 g
[17]; [26]
  L (longest diameter of the tumor): 6 mm and 4 mm
  W (shortest diameter of the tumor): 6 mm and 5 mm and 4 mm
  Weight: 22 g
[17]; [27]
  Increased tumor volume, Mean: 113.1667 mm^3
  Volume, Mean: 113.1667 mm^3
[17]; [28]
  Increased tumor volume: 87.5 mm^3 and 144 mm^3 and 108 mm^3
  L (longest diameter of the tumor): 7 mm and 8 mm and 6 mm
  Volume: 87.5 mm^3 and 144 mm^3 and 108 mm^3
  W (shortest diameter of the tumor): 5 mm and 6 mm
  Weight: 19 g and 18 g
[17]; [29]
  Increased tumor volume, Mean: −18.1667 mm^3
  Volume, Mean: 71.67 mm^3
  Weight: 20 g
[17]; [30]
  L (longest diameter of the tumor): 6 mm and 4 mm
  W (shortest diameter of the tumor): 6 mm and 4 mm and 5 mm
  Weight: 22 g
[17]; [31]
  Increased tumor volume, Mean: −4.167 mm^3
  Volume, Mean: 109 mm^3
  Weight: 20 g
[17]; [32]
  L (longest diameter of the tumor): 6 mm and 7 mm
  Volume: 75 mm^3 and 126 mm^3
  W (shortest diameter of the tumor): 5 mm and 6 mm
  Weight: 19 g and 21 g
[17]; [33]
  Increased tumor volume, Mean: −19.1667 mm^3
  Volume, Mean: 89.83 mm^3
  L (longest diameter of the tumor): 7 mm
[17]; [34]
  W (shortest diameter of the tumor): 6 mm and 4 mm and 5 mm
  Weight: 20.5 g and 23.5 g and 19 g
[17]; both low dosage and high dosage, FIG. 2
  inhibitory effect against the tumors: great inhibitory effect
[17]; each group of mice, high or low dosage
  weight loss during the experiments: no obvious weight loss
[17]; either high or low dosage
  health condition / death during the treatment: not die during the treatment
[17]; high dosage, FIG. 3
  effect on tumor volume, high versus low dosage: better effect
[17]; low dosage and high dosage, FIG. 3
  increase of tumor volume: effectively inhibit the increase of tumor volume

Source: US10045962B2 (priority 2014, dated 2018)
